The source made the active and inactive calls. The calls are words filed in the database; no cut-off is given here.
What was measured:
[1] = target: Glutamate NMDA receptor; GRIN1/GRIN2B (Homo sapiens, UniProt Q05586+Q13224); assay: Inhibitory activity against Xenopus laevis oocyte expressing 1A/2B heteromeric human NMDA (hNMDA) receptor; type: protein-complex assay
[2] = target: Glutamate [NMDA] receptor; assay: In vitro inhibitory activity at 1 uM concentration against N-methyl-D-aspartate glutamate receptor, using [3H]CGP-39653 binding assay; type: protein-complex assay
[3] = test system: GRIN1/GRIN2A vs GRIN1/GRIN2B (Homo sapiens); assay: Ratio of human NMDA 1A/2A receptor to human NMDA 1A/2B receptor was determined in xenopus oocytes; 1/10; conditions: Oocyte
[4] = species: Mus musculus; assay: Anticonvulsant effect in mouse electroshock-induced seizure test (MES).; type: functional
[5] = target: Glutamate NMDA receptor; GRIN1/GRIN2A (Homo sapiens, UniProt Q05586+Q12879); assay: Inhibitory activity against Xenopus laevis oocyte expressing 1A/2A heteromeric human NMDA (hNMDA) receptor; type: protein-complex assay
[6] = test system: GRIN1/GRIN2A vs GRIN1/GRIN2B (Homo sapiens); assay: Ratio of human NMDA 1A/2A receptor to human NMDA 1A/2B receptor was determined in xenopus oocytes; 1/111; conditions: Oocyte
[7] = Compound was tested in vitro for its inhibitory activity against Xenopus laevis oocyte expressing 1A/2B heteromeric human NMDA (hNMDA) receptor
[8] = target: Glutamate [NMDA] receptor; assay: Compound was tested in vitro for its inhibitory activity at 1 uM concentration against N-methyl-D-aspartate glutamate receptor by using [3H]CGP-39653 binding assay; type: protein-complex assay
[9] = Compound was tested in vitro for its inhibitory activity against Xenopus laevis oocyte expressing 1A/2A heteromeric human NMDA (hNMDA) receptor
[10] = test system: Mus musculus; assay: Compound was evaluated for its anticonvulsant effect in mouse electroshock-induced seizure test (MES), 8 hr after intraperitoneal administration; type: functional; conditions: ip
[11] = test system: GRIN1/GRIN2A vs GRIN1/GRIN2B (Homo sapiens); assay: Ratio of human NMDA 1A/2A receptor to human NMDA 1A/2B receptor was determined in xenopus oocytes; 1/15; conditions: Oocyte
[12] = test system: Mus musculus; assay: Compound was evaluated for its anticonvulsant effect in mouse electroshock-induced seizure test (MES), 8 hr after oral administration; type: functional
[13] = test system: Mus musculus; assay: Compound at a dose 50 mg/kg was administered intraperitoneally into mouse and percent protection was determined after 1 hour; type: functional; conditions: route intraperitoneal
[14] = test system: GRIN1/GRIN2A vs GRIN1/GRIN2B (Homo sapiens); assay: Ratio of human NMDA 1A/2A receptor to human NMDA 1A/2B receptor was determined in xenopus oocytes; 1/11; conditions: Oocyte
[15] = test system: GRIN1/GRIN2A vs GRIN1/GRIN2B (Homo sapiens); assay: Ratio of human NMDA 1A/2A receptor to human NMDA 1A/2B receptor was determined in xenopus oocytes; 1/9; conditions: Oocyte
[16] = test system: GRIN1/GRIN2A vs GRIN1/GRIN2B (Homo sapiens); assay: Ratio of human NMDA 1A/2A receptor to human NMDA 1A/2B receptor was determined in xenopus oocytes; 1/40; conditions: Oocyte
[17] = target: Glutamate [NMDA] receptor (Homo sapiens) (UniProt Q05586+Q12879+Q13224+O15399+O60391+Q14957+Q8TCU5); assay: The compound was tested in vitro for percent inhibition at 1 uM concentration against N-methyl-D-aspartate glutamate receptor by using [3H]CGP-39653 binding assay; type: protein-complex assay
[18] = test system: GRIN1/GRIN2A vs GRIN1/GRIN2B (Homo sapiens); assay: Ratio of human NMDA 1A/2A receptor to human NMDA 1A/2B receptor was determined in xenopus oocytes; 1/50; conditions: Oocyte
[19] = test system: GRIN1/GRIN2A vs GRIN1/GRIN2B (Homo sapiens); assay: Ratio of human NMDA 1A/2A receptor to human NMDA 1A/2B receptor was determined in xenopus oocytes; 1/26; conditions: Oocyte
[20] = test system: GRIN1/GRIN2A vs GRIN1/GRIN2B (Homo sapiens); assay: Ratio of human NMDA 1A/2A receptor to human NMDA 1A/2B receptor was determined in xenopus oocytes; 1/7; conditions: Oocyte
[21] = test system: GRIN1/GRIN2A vs GRIN1/GRIN2B (Homo sapiens); assay: Ratio of human NMDA 1A/2A receptor to human NMDA 1A/2B receptor was determined in xenopus oocytes; 1/14; conditions: Oocyte
[22] = test system: GRIN1/GRIN2A vs GRIN1/GRIN2B (Homo sapiens); assay: Ratio of human NMDA 1A/2A receptor to human NMDA 1A/2B receptor was determined in xenopus oocytes; >1/17; conditions: Oocyte
[23] = test system: GRIN1/GRIN2A vs GRIN1/GRIN2B (Homo sapiens); assay: Ratio of human NMDA 1A/2A receptor to human NMDA 1A/2B receptor was determined in xenopus oocytes; 1/1; conditions: Oocyte
[24] = test system: GRIN1/GRIN2A vs GRIN1/GRIN2B (Homo sapiens); assay: Ratio of human NMDA 1A/2A receptor to human NMDA 1A/2B receptor was determined in xenopus oocytes; 1/8; conditions: Oocyte
[25] = test system: GRIN1/GRIN2A vs GRIN1/GRIN2B (Homo sapiens); assay: Ratio of human NMDA 1A/2A receptor to human NMDA 1A/2B receptor was determined in xenopus oocytes; 1/13; conditions: Oocyte
[26] = test system: Glutamate [NMDA] receptor; assay: The compound was tested in vitro for its inhibitory activity at 1 uM concentration against N-methyl-D-aspartate glutamate receptor by using [3H]CGP-39653 binding assay; Inactive; type: protein-complex assay

Chain of Glutamate NMDA receptor; GRIN1/GRIN2A (Q12879 whole entry, other chains not shown): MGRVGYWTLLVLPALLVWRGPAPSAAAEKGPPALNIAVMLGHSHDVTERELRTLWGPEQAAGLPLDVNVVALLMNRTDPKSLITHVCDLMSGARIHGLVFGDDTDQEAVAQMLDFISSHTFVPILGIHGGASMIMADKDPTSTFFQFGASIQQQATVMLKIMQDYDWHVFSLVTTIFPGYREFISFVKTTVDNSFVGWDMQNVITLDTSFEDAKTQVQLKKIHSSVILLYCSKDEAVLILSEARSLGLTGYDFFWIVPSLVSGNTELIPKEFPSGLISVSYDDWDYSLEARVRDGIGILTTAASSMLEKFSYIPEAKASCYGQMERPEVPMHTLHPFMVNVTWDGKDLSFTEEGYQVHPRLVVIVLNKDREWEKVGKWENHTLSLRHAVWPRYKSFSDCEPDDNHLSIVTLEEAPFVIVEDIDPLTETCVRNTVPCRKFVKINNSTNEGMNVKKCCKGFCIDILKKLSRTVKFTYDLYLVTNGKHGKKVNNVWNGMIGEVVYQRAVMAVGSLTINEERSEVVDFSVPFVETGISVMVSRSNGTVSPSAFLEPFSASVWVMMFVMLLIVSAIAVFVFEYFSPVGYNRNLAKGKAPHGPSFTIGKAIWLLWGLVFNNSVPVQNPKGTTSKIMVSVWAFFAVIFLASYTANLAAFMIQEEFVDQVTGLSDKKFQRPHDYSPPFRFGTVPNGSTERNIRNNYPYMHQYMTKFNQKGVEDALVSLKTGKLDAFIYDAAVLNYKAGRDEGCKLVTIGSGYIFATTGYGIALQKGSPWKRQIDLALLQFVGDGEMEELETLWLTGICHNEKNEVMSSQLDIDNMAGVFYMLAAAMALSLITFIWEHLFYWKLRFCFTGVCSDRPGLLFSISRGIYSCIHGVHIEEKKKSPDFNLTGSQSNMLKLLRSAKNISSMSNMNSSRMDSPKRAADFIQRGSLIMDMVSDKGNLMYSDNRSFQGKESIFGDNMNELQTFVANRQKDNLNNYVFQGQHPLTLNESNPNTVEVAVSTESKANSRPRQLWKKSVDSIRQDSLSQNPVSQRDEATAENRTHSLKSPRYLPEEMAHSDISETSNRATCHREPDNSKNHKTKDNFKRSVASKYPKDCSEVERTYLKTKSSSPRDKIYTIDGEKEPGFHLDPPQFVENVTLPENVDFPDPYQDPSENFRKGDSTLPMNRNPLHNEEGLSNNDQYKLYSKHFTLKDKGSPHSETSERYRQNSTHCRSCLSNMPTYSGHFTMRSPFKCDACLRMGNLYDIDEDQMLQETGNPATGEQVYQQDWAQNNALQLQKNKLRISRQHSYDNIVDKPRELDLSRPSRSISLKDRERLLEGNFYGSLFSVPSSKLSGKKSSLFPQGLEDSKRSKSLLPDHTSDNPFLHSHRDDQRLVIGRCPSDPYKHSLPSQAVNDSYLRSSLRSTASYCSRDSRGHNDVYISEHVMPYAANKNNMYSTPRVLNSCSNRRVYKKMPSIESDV
Chain of Glutamate NMDA receptor; GRIN1/GRIN2B (Q13224 whole entry, other chains not shown): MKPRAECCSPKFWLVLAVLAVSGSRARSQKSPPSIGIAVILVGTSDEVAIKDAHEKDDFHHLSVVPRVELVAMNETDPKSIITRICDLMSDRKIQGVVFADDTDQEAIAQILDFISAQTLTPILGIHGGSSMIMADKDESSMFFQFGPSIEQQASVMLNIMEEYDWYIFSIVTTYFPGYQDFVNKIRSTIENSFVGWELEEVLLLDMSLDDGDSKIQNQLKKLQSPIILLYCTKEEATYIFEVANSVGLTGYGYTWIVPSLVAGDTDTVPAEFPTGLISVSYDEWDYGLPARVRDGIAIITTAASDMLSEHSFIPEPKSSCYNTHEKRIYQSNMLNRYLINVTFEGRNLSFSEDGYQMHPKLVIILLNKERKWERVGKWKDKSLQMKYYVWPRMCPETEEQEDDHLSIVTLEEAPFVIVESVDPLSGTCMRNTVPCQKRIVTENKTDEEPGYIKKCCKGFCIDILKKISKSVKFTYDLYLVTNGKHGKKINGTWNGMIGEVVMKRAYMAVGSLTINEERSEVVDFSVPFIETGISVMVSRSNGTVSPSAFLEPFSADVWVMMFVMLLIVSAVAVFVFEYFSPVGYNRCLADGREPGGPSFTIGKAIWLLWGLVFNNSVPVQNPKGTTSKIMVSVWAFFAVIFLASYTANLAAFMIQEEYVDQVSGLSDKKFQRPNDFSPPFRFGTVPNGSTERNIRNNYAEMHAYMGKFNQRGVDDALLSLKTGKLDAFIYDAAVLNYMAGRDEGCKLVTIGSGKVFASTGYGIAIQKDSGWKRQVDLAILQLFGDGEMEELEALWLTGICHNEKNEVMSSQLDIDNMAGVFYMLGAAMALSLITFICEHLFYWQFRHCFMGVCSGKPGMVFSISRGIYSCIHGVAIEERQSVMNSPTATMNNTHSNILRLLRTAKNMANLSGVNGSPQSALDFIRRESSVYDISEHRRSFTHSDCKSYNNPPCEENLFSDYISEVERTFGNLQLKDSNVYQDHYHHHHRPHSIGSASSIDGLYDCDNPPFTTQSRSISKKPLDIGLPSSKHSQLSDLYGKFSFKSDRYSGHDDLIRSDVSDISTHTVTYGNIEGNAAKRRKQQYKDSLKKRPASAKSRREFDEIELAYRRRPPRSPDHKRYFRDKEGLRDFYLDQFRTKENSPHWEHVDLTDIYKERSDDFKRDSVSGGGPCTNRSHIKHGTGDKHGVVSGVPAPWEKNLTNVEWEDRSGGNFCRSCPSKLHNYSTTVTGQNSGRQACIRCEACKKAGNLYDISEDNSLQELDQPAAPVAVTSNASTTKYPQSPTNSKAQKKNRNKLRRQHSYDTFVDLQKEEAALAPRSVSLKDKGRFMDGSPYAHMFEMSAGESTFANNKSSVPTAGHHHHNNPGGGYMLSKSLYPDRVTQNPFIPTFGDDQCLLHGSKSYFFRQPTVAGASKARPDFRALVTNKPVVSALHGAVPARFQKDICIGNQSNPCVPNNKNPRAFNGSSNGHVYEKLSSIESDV

Row | SMILES | IC50 [1] | IC50 [2] | IC50 [5] | ED50 [4] | other results
1 | CCCNC(c1cc([N+](=O)[O-])cc2nc(O)c(O)nc12)P(=O)(O)O.Cl (configuration not stated) | 930 nM | 65 nM | 90 nM | 2.8 mg/kg | Ratio [3]: Active
2 | C[C@H](NC(c1cccc2nc(O)c(O)nc12)P(=O)(O)O)c1ccc(Br)cc1 (some centres not stated) |  |  |  | 23 mg/kg | Ratio [6]: Active
3 | O=P(O)(O)Cc1cccc2nc(O)c(O)nc12 |  |  |  | 0.7 mg/kg | IC50 [7]: 30 nM; IC50 [8]: 0.5 nM; IC50 [9]: 2 nM; ED50 [10]: 1.1 mg/kg; Ratio [11]: Active; ED50 [12]: 6.7 mg/kg
4 | C[C@@H](NC(c1cccc2nc(O)c(O)nc12)P(=O)(O)O)c1ccccc1 (some centres not stated) | 570 nM | 31 nM | 50 nM |  | Protection [13]: 60%; Ratio [14]: Active
5 | O=P(O)(O)C(NC(c1ccccc1)c1ccccc1)c1cccc2nc(O)c(O)nc12 (configuration not stated) | 1500 nM | 38 nM | 170 nM | 2.3 mg/kg | Ratio [15]: Active
6 | CP(=O)(O)C(O)c1cc([N+](=O)[O-])cc2nc(O)c(O)nc12 (configuration not stated) |  |  |  |  | Protection [13]: 0%; inhibition [17]: 42%
7 | CN(Cc1ccccc1)C(c1cccc2nc(O)c(O)nc12)P(=O)(O)O (configuration not stated) | 30000 nM | 160 nM | 600 nM |  | Protection [13]: 40%; Ratio [18]: Active
8 | Br.O=[N+]([O-])c1cc(C(NCc2ccccc2)P(=O)(O)Cc2ccccc2)c2nc(O)c(O)nc2c1 (configuration not stated) | 1300 nM | 60 nM | 50 nM |  | Protection [13]: 20%; Ratio [19]: Active
9 | Br.CP(=O)(O)C(NCc1ccccc1)c1cc([N+](=O)[O-])cc2nc(O)c(O)nc12 (configuration not stated) | 1300 nM | 80 nM | 200 nM |  | Ratio [20]: Active; Protection [13]: 0%
10 | O=C(O)Cc1cccc2nc(O)c(O)nc12 |  | 250 nM |  |  | 
11 | O=P(O)(O)C(N[C@H]1CCc2ccccc21)c1cccc2nc(O)c(O)nc12 (some centres not stated) | 820 nM | 120 nM | 60 nM | 2 mg/kg | Ratio [21]: Active
12 | CC(=O)N(C)C(c1cccc2nc(O)c(O)nc12)P(=O)(O)O (configuration not stated) | 24000 nM | 860 nM | 2800 nM |  | Ratio [15]: Active
13 | C[C@H](NC(c1cccc2nc(O)c(O)nc12)P(=O)(O)O)c1cccc2ccccc12 (some centres not stated) | > 30000 nM | 27 nM | 1700 nM | 15 mg/kg | Ratio [22]: Active
14 | O=P(O)(O)C(Nc1ccccc1)c1cccc2nc(O)c(O)nc12 (configuration not stated) | 6200 nM | 130 nM | 490 nM |  | Protection [13]: 0%; Ratio [24]: Active
15 | COC(=O)NC(c1cc([N+](=O)[O-])cc2nc(O)c(O)nc12)P(=O)(O)O (configuration not stated) | 1400 nM | 370 nM | 110 nM | 8.8 mg/kg | Ratio [25]: Active
16 | C[C@H](NC(c1cccc2nc(O)c(O)nc12)P(=O)(O)O)c1ccccc1 (some centres not stated) | 900 nM | 9.7 nM | 18 nM | 6.7 mg/kg | Ratio [18]: Active
17 | CNC(c1cccc2nc(O)c(O)nc12)P(=O)(O)O (configuration not stated) | 6200 nM | 1100 nM | 790 nM |  | Ratio [24]: Active
18 | COC(c1cc([N+](=O)[O-])cc2nc(O)c(O)nc12)P(=O)(O)O (configuration not stated) |  | 17 nM |  |  | 
19 | Cl.NC(c1cc([N+](=O)[O-])cc2nc(O)c(O)nc12)P(=O)(O)O (configuration not stated) |  | 40 nM |  | 11.6 mg/kg | 
20 | CC(=O)OC(c1cc([N+](=O)[O-])cc2nc(O)c(O)nc12)P(=O)(O)O (configuration not stated) |  | 8.1 nM |  | 5 mg/kg | 
21 | O=P(O)(O)Cc1ccc2nc(O)c(O)nc2c1 |  |  |  |  | IC50 [26]: Not Active

The remaining molecules from weak to strong by IC50 [2], led by results:

Row | IC50 [1] | IC50 [2] | IC50 [5] | SMILES | ED50 [4] | other results
22 | 29600 nM | 8 nM | 270 nM | C[C@H](NC(c1cccc2[nH]c(=O)c(=O)[nH]c12)P(=O)(O)O)c1ccc(Br)cc1 (some centres not stated) |  | 
23 | 1600 nM | 7.4 nM | 40 nM | O=P(O)(O)C(NCCc1ccccc1)c1cccc2nc(O)c(O)nc12 (configuration not stated) | 10 mg/kg | Ratio [16]: Active
24 |  | 4.1 nM |  | Br.O=[N+]([O-])c1cc(C(NCc2ccco2)P(=O)(O)O)c2nc(O)c(O)nc2c1 (configuration not stated) | 3.7 mg/kg | 
25 |  | 3 nM |  | Cl.O=[N+]([O-])c1cc(C(NCC2CCCCC2)P(=O)(O)O)c2nc(O)c(O)nc2c1 (configuration not stated) | 4 mg/kg | 
26 | 34 nM | 2 nM | 4.2 nM | Br.O=P(O)(O)C(NCc1ccccc1)c1cccc2nc(O)c(O)nc12 (configuration not stated) | 2 mg/kg | Ratio [24]: Active
27 |  | 1.7 nM |  | O=P(O)(O)Cc1cc(Cl)cc2nc(O)c(O)nc12 | 2.4 mg/kg | 
28 |  | 1.5 nM |  | Br.O=[N+]([O-])c1cc(C(NCc2ccccc2)P(=O)(O)O)c2nc(O)c(O)nc2c1 (configuration not stated) | 1.5 mg/kg | 
29 |  | 1.5 nM |  | O=P(O)(O)Cc1cc(Br)cc2nc(O)c(O)nc12 | 2.5 mg/kg | 
30 | 0.7 nM | 1.5 nM | 1.1 nM | O=P(O)(O)C(O)c1cccc2nc(O)c(O)nc12 (configuration not stated) | 0.5 mg/kg | Ratio [23]: Active
31 |  | 1.2 nM |  | O=[N+]([O-])c1cc(C(O)P(=O)(O)O)c2nc(O)c(O)nc2c1 (configuration not stated) | 1.2 mg/kg | 
32 |  | 1 nM |  | O=P(O)(O)Cc1cc(F)cc2nc(O)c(O)nc12 |  | 
33 | 1.8 nM | 0.8 nM | 0.2 nM | O=P(O)(O)Cc1cc(-c2ccc(Cl)cc2)cc2nc(O)c(O)nc12 | 0.7 mg/kg | Ratio [15]: Active
